In patent US20200108089A1, “Gemcitabine Derivatives for Cancer Therapy” (Suzhou Sirnaomics Biopharmaceuticals Co., Ltd., priority 2017, published 2020):
Where two headings read alike, the source gives them in different places. Bridge positions count the residues as written; N and C are the ends. Ends that are not written are not given here. I, II: the chains in the order shown.

What was measured:
[1] = test system: LX-1, CALU-6, NCI-H460, NCI-H520 human lung xenografts; conditions: cited from earlier work
[2] = test system: Lewis lung murine xenograft; conditions: cited from earlier work
[3] = -NH2 of Gemcitabine; cited from earlier work
[4] = cited from earlier work
miR-132 = assay: Knockdown of miR-132 by antagomir-132 nanoparticles in mouse eyes; format: in vivo; conditions: QPCR
Experimental: FIG. 4. Knockdown of miR-132 by antagomir-132 nanoparticles in mouse eyes. […] One way ANOVA with Bonferroni's post hoc test was used to calculate the level of significance. P≤0.05 (*). Six corneas were collected and pooled for analysis by QPCR or WB. (B) Antagomir-132 and scrambled sequences were injected in HSV infected mice subconjunctively and the quantification of RasGAP mRNA from corneas isolated from different groups was carried out (n=6 mice/group). The level of significance was determined by student's t test (unpaired). ***P≤0.001.
One way ANOVA with Bonferroni's post hoc test was used to calculate the level of significance. P≤0.05 (*). Six corneas were collected and pooled for analysis by QPCR or WB. (B) Antagomir-132 and scrambled sequences were injected in HSV infected mice subconjunctively and the quantification of RasGAP mRNA from corneas isolated from different groups was carried out (n=6 mice/group). The level of significance was determined by student's t test (unpaired). ***P≤0.001 (FIG. 4).

Panc-1 cells [5] = assay: Dosage-dependent cytotoxicities of Gemcitabine and GEM-HKP conjugate, Cell Titer-Glo; format: cell-based, human; conditions: Panc-1, 72 hrs post treatment
Experimental: FIG. 21. Dosage-Dependent Cytotoxicities of Gemcitabine and GEM-HKP conjugate in the Panc-1 cell culture, at 72 hrs post treatments After exposures of the Panc-1 cells to Gemcitabine only, GEM-HKP conjugate, the cytotoxicities of each treatment was assessed with a “Cell Titer-Glo Luminescent cell viability assay” (Promega). Values derived from untreated cells (Blank) were set as 100%. All values represent the mean of ±S.D. of four replicates for each dilution. In this study, the HKP concentration at each point equals to its concentration in the Gem/HKP.

Panc-1 cells [6] = assay: Effect of TGF-β1siRNA and mTORsiRNA on chemosensitivity of Panc-1 cells to low dose GEM-TCA; format: cell-based, human; conditions: 48 h; for maximum cell killing: siRNA 30 nM plus GEM-TCA up to 1 μM; for sensitization of Panc-1 cells to GEM-TCA: siRNA 30 nM
Experimental: FIG. 10. Effect of forward transfection with TGF-β1siRNA and mTORsiRNA chemosensitivity of Panc-1 cells to […] The next day, the medium was supplemented with 3.9 nM-1000 nM […] diluted in the same medium. At 48 h post chemical exposure cytotoxicity was assessed with Cell Titer-Glo Luminescent cell viability assay (Promega). Values derived from untreated cells (Blank) were set as 100%. All values represent the mean of ±S.D. of four replicates for each dilution. Paired sample two-tailed Student's t-test was used to determine significance.
. At 48 h post chemical exposure cytotoxicity was assessed with Cell Titer-Glo Luminescent cell viability assay (Promega). Values derived from untreated cells (Blank) were set as 100%. All values represent the mean of ±S.D. of four replicates for each dilution. Paired sample two-tailed Student's t-test was used to determine significance. The TGF-β1siRNA was previously identified and validated with multiple in vitro and in vivo assays: […]

Panc-1 cells [7] = assay: Effect of forward transfection with mTOR siRNA on chemosensitivity of Panc-1 cells to GEM-TCA; format: cell-based, human; conditions: mTOR-siRNA 10 nM and 20 nM; GEM-TCA 12.3 nM to 1 μM; 72 h; vs non-targeting siRNA
Experimental: FIG. 9. Effect of forward transfection with mTORsiRNA on chemosensitivity of Panc-1 cells to […] 5×10^3 Panc-1 cells were seeded on the wells of 96-well plate in 100 ul of DMEM/10% FBS. The next day cells were transfected with siRNA/Lipofectamine 2000 complexes accordingly to the manufactures' recommendations. In 5-6 h. medium was changed. The next day various concentrations of […] were applied to the transfected cells. At 72 h post chemical exposure cytotoxicity was assessed with Cell Titer-Glo Luminescent cell viability assay (Promega). Values derived from untreated cells (Blank) were set as 100%. All values represent the mean of ±S.D. of four replicates for each dilution. * different from cells transfected with control, not-targeting siRNA (p<0.05, Student's t test)
To realize the original hypothesis that the oncogenic gene target knockdown may induce a chemosensitivity of Panc-1 cell toward to […], the experiment was conducted with following procedures. 5×10^3 Panc-1 cells were seeded on the wells of 96-well plate in 100 ul of DMEM/10% FBS. The next day cells were transfected with siRNA/Lipofectamine 2000 complexes accordingly to the manufactures' recommendations. In 5-6 h. medium was changed. […] At 72 h post chemical exposure cytotoxicity was assessed with Cell Titer-Glo Luminescent cell viability assay (Promega). […]

mTOR [8] = assay: Selection of potent siRNA targeting mTOR, transfection and qRT-PCR, MDA-MB-231; format: cell-based; conditions: human MDA-MB-231 cells, qRT-PCR
From the text: (§1) FIG. 3. Selection of potent siRNA targeting mTOR. (A) The lower panel illustrates selection of eight 25 mer siRNA duplexes with control siRNA were transfected into human MDA-MB-231 cells and mouse CT26 cells. 24 hr later, mRNA was collected and subject to Q-RT-PCR with the standard control gene target Rigs15.
(§2) For mTOR siRNA selection, we first use in silico screening selected 8 siRNA sequences for siRNA oligo synthesis. And then we transfected these siRNAs into human MDA-MB-231 cells and mouse CT26 cells. Twenty-four hours later, the total mRNA collected and subjected to qRT-PCR analysis with the standard control gene target Rigs15. From FIG. 3 we can see that the potent siRNA duplexes targeting mTOR (both human and mouse mRNAs) was selected.
(§3) We have identified potent mTOR specific siRNA through cell culture studies with human breast cancer cell line MDA-MB-231 and mouse CT26 cells, followed by qRT-PCR analyses: mTOR-siRNA: […]

mTOR [9] = assay: Selection of potent siRNA targeting mTOR, transfection and qRT-PCR, CT26; format: cell-based; conditions: mouse CT26 cells, qRT-PCR
From the text: as §1, §2, §3

Molecule: Nc1ccn([C@@H]2O[C@H](CO)[C@@H](O)C2(F)F)c(=O)n1 [Gemcitabine, 2′,2′-difluorodeoxycytidine]
- activity in combination with cisplatin ([1]; LX-1 and CALU-6 human lung xenografts): showed activity
- activity in combination with cisplatin ([1]; NCI-H460 or NCI-H520 xenografts): minimal activity
- interaction with cisplatin [2]: synergistic
- pKa [3]: ~2.8
- activity with cisplatin in vitro [4]: dose-dependent synergistic activity

Molecule: Antagomir-132: modified RNA oligo targeting miR-132 (accguggcuuucgauuguuacu), packaged with HKP into nanoparticles (antisense ACCGUGGCUUUCGAUUGUUACU; chemically modified, pattern not given here, packaged with HKP into nanoparticles)
- miR-132 knockdown in the corneas (miR-132): peak miR-132 knockdown

Molecule: I: KHHHKHHHKHHHKHHHKKKK-NH2 / II: KHHHKHHHKHHHKHHHK / III: KHHHKHHHKHHHKHHHK / IV: KHHHKHHHKHHHKHHHK (amide I:18-IV:C, I:19-III:C, I:20-II:C) [HKP]
- cytotoxicity (Panc-1 cells [5]): no cytotoxicity

Molecule: TGF-β1siRNA: siRNA duplex to TGF-β1; sense 5′-r(CCUCAAUUCAGUCUCUCAUCUGCAA)-3′ in b118 (sense CCCAAGGGCUACCAUGCCAACUUCU; antisense AGAAGUUGGCAUGGUAGCCCUUGGG; chemistry not given here)
- maximum cell killing (Panc-1 cells [6]): 60%
- sensitization of Panc-1 cells to GEM-TCA (Panc-1 cells [6]; GEM-TCA 3.9 nM): significantly sensitize
- sensitization of Panc-1 cells to GEM-TCA (Panc-1 cells [6]; GEM-TCA 62.5 nM): sensitization effect was still significant

Molecule: mTOR-siRNA: 25mer siRNA duplex specific to mTOR mRNA; sense 5′-r(GGUCUGGUGCCUGGUCUGAUGAUGU)-3′ in b114 (sense CACUACAAAGAACUGGAGUUCCAGA; antisense UCUGGAACUCCAGUUCUUUGUAGUG; further chemistry not given here)
- tumor cell killing by GEM-TCA after siRNA transfection (Panc-1 cells [7]): significantly improved
- mTOR silencing potency (mTOR [8]): potent
- maximum cell killing (Panc-1 cells [6]): 60%
- sensitization of Panc-1 cells to GEM-TCA (Panc-1 cells [6]; GEM-TCA 3.9 nM): significantly sensitize
- sensitization of Panc-1 cells to GEM-TCA (Panc-1 cells [6]; GEM-TCA 15.6 nM): sensitization effect was disappeared
- mTOR silencing potency (mTOR [9]): potent
